The results in this text go back to patent publication US10807982B2, “Bromodomain inhibitors” (CELGENE QUANTICEL RESEARCH, INC., priority 2015, dated 2020).

The target in assay [1] is BRD4(BD1) (Homo sapiens (Human), UniProt O60885). Put plainly: In vitro enzyme inhibition assay (BRD4 AlphaScreen, H4-tetraacetyl peptide). The format is binding. Conditions: BRD4(BD1) 2 nM, peptide 15 nM. A digest of the protocol:
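His-tagged BRD4(BD1), 2 nM, with 15 nM biotinylated H4K5/8/12/16(Ac) peptide in HEPES pH 7.3 buffer, 0.4% DMSO, 20 min RT with compound. Streptavidin donor and Ni-chelate acceptor beads (5 μg/mL) then equilibrated 2 h. AlphaScreen signal; IC50 by four-parameter fit.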

In assay [2] the test system is Raji, human Burkitts lymphoma cells. The experiment in a line: Cell-MTS cellular proliferation assay, Raji. The format is cell-based. Conditions: Homo sapiens, 168 hr incubation. A digest of the protocol:
(§1)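 Cells seeded to reach ~90% confluence at 7 days (Raji 15,000, HL-60 5,000, NCI-H460 3,000 per well); 11-point compound dilution, 100 µM to 2.0 nM final, added 24 h after plating. Exposure 168 hr at 37 °C, 5% CO2; MTS read at OD490. IC50 from background-subtracted OD490 normalized to DMSO controls.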

For assay [3], the system named is HL-60, human proleukemia cells. Put plainly: Cell-MTS cellular proliferation assay, HL-60. In kind it is cell-based. Conditions: Homo sapiens, HL-60 cells, 168 hr incubation. An outline of the steps:
as §1

The subject of assay [4] is NCI-H460, human non-small cell lung cancer cells. Put plainly: Cell-MTS cellular proliferation assay, NCI-H460. The format is cell-based. Conditions: Homo sapiens, 168 hr incubation. An outline of the steps:
as §1

Turning to `CCOc1nc2c(CS(C)(=O)=O)cc(-c3cc(C)c(=O)n(C)c3)cc2n1CC1CC1` [Example 97, 5-[3-(cyclopropylmethyl)-2-ethoxy-7-(methylsulfonylmethyl)benzimidazol-5-yl]-1,3-dimethylpyridin-2-one], the concentration for half-maximal inhibition (IC50) in assay [1] is not above 500 nM; in assay [2], not above 500 nM; in assay [3], not above 500 nM; in assay [4], more than 5000 nM.
As for `CN1Cc2cc(OCC3CC3)c(-c3cn(C)c(=O)c4ccccc34)cc2S1(=O)=O` [Example 6, 4-[5-(cyclopropyhnethoxy)-2-methyl-1,1-dioxo-3H-1,2-benzothiazol-6-yl]-2-methylisoquinolin-1-one], the IC50 in assay [1] was not above 500 nM; in assay [2] it was 500 to 5000 nM; in assay [3], not above 500 nM; in assay [4] it was 500 to 5000 nM.
Take `Cc1cc(-c2cc(S(C)(=O)=O)ccc2OCC2CC2)c2n(c1=O)CC(C)(C)C2` [Example 87, 8-[2-(cyclopropylmethoxy)-5-methylsulfonylphenyl]-2,2,6-trimethyl-1,3-dihydroindolizin-5-one]: the IC50 in assay [1] is not above 500 nM; in assay [2], not above 500 nM; in assay [3], not above 500 nM; in assay [4], more than 5000 nM.
On to `Cc1cc(-c2cc(NS(C)(=O)=O)c3nc(C)n(Cc4ccc(F)cc4)c3c2)cn(C)c1=O` [Example 37, N-[6-(1,5-dimethyl-6-oxopyridin-3-yl)-1-[(4-fluorophenyl)methyl]-2-methylbenzimidazol-4-yl]methanesulfonamide], for which the IC50 in assay [1] is not above 500 nM; in assay [2], not above 500 nM; in assay [3], not above 500 nM; in assay [4], 500 to 5000 nM.
As for `CCS(=O)(=O)Nc1cc(-c2cc(C)c(=O)n(C)c2)c2oc(C3CCCC3)nc2c1` [Example 52, N-[2-cyclopentyl-7-(1,5-dimethyl-6-oxopyridin-3-yl)-1,3-benzoxazol-5-yl]ethanesulfonamide], the IC50 in assay [1] is not above 500 nM; in assay [2] it was not above 500 nM; in assay [3] it was not above 500 nM; in assay [4], more than 5000 nM.
In the case of `CCS(=O)(=O)Nc1cc(-c2cc(OC)c(=O)n(C)c2)c2oc(C3CCCC3)nc2c1` [Example 57, N-[2-cyclopentyl-7-(5-methoxy-1-methyl-6-oxopyridin-3-yl)-1,3-benzoxazol-5-yl]ethanesulfonamide], the IC50 in assay [1] is not above 500 nM; in assay [2] it was not above 500 nM; in assay [3] it was not above 500 nM; in assay [4], more than 5000 nM.
Take `COc1nc2c(NS(C)(=O)=O)cc(-c3cc(C)c(=O)n(C)c3)cc2n1CC1CC1` [Example 73, N-[1-(cyclopropylmethyl)-6-(1,5-dimethyl-6-oxopyridin-3-yl)-2-methoxybenzimidazol-4-yl]methanesulfonamide]: the half-inhibitory concentration (IC50) is not above 500 nM in assay [1], not above 500 nM in assay [2], not above 500 nM in assay [3] and 500 to 5000 nM in assay [4].
As to `CCCCn1cnc2c(NS(=O)(=O)CC)cc(-c3cc(C)c(=O)n(C)c3)cc21` [Example 40, N-[1-butyl-6-(1,5-dimethyl-6-oxopyridin-3-yl)benzimidazol-4-yl]ethanesulfonamide], the half-maximal inhibitory concentration (IC50) in assay [1] was not above 500 nM; in assay [2] it was not above 500 nM; in assay [3], not above 500 nM; in assay [4], more than 5000 nM.
Consider `Cc1cc(-c2cc(NS(C)(=O)=O)c3c(c2)N(Cc2ccccc2)CC3)cn(C)c1=O` [Example 19, N-[1-benzyl-6-(1,5-dimethyl-6-oxopyridin-3-yl)-2,3-dihydroindol-4-yl]methanesulfonamide], for which the IC50 is not above 500 nM in assay [1], not above 500 nM in assay [2], not above 500 nM in assay [3] and 500 to 5000 nM in assay [4].
In the case of `Cn1cc(-c2cc(S(C)(=O)=O)cc3cc(-c4ccccc4)oc23)c2ccccc2c1=O` [Example 26, 2-methyl-4-(5-methylsulfonyl-2-phenyl-1-benzofuran-7-yl)isoquinolin-1-one], the IC50 in assay [1] was not above 500 nM; in assay [2] it was not above 500 nM; in assay [3] it was not above 500 nM; in assay [4], 500 to 5000 nM.
With `COC[C@@H](C)n1c(C)nc2c(NS(C)(=O)=O)cc(-c3cc(C)c(=O)n(C)c3)cc21` [Example 46, N-[6-(1,5-dimethyl-6-oxopyridin-3-yl)-1-[(2R)-1-methoxypropan-2-yl]-2-methylbenzimidazol-4-yl]methanesulfonamide], the IC50 in assay [1] is not above 500 nM; in assay [2], not above 500 nM; in assay [3], not above 500 nM; in assay [4], more than 5000 nM.
Consider `CCS(=O)(=O)Nc1cc(-c2cc(C)c(=O)n(C)c2)cc2c1cnn2Cc1ccc(F)cc1` [Example 43, N-[6-(1,5-dimethyl-6-oxopyridin-3-yl)-1-[(4-fluorophenyl)methyl]indazol-4-yl]ethanesulfonamide], for which the IC50 in assay [1], in assay [2], in assay [3] and in assay [4] was not above 500 nM in each case.
Turning to `CCS(=O)(=O)Nc1cc(-c2cc(C)c(=O)n(C)c2)c2oc(C3CC3)nc2c1` [Example 47, N-[2-cyclopropyl-7-(1,5-dimethyl-6-oxopyridin-3-yl)-1,3-benzoxazol-5-yl]ethanesulfonamide], the IC50 is not above 500 nM in assay [1], not above 500 nM in assay [2], not above 500 nM in assay [3] and more than 5000 nM in assay [4].
Regarding `Cc1cc(-c2cc(S(C)(=O)=O)ccc2OCC2CC2)c2n(c1=O)CCC2` [Example 85, 8-[2-(cyclopropylmethoxy)-5-methylsulfonylphenyl]-6-methyl-2,3-dihydro-1H-indolizin-5-one], the IC50 in assay [1] was not above 500 nM; in assay [2] it was 500 to 5000 nM; in assay [3], not above 500 nM; in assay [4] it was more than 5000 nM.
`Cn1cc(-c2cc3c(S(C)(=O)=O)nn(C)c3cc2OCC2CC2)c2ccccc2c1=O` [Example 29, 4-[6-(cyclopropylmethoxy)-1-methyl-3-methylsulfonylindazol-5-yl]-2-methylisoquinolin-1-one]: the IC50 in assay [1] is not above 500 nM; in assay [2], not above 500 nM; in assay [3], not above 500 nM; in assay [4], 500 to 5000 nM.
For the compound `Cc1cc(-c2cc(NS(C)(=O)=O)c3nc(C)n(CC4CC4)c3c2)cn(C)c1=O` [Example 39, N-[1-(cyclopropylmethyl)-6-(1,5-dimethyl-6-oxopyridin-3-yl)-2-methylbenzimidazol-4-yl]methanesulfonamide], the IC50 in assay [1] is not above 500 nM; in assay [2], not above 500 nM; in assay [3], not above 500 nM; in assay [4] it was more than 5000 nM.
As for `CCOc1nc2c(CS(C)(=O)=O)cc(-c3cc(OC)c(=O)n(C)c3)cc2n1CC1CC1` [Example 98, 5-[3-(cyclopropylmethyl)-2-ethoxy-7-(methylsulfonylmethyl)benzimidazol-5-yl]-3-methoxy-1-methylpyridin-2-one], the IC50 in assay [1] was not above 500 nM; in assay [2], not above 500 nM; in assay [3] it was not above 500 nM; in assay [4] it was more than 5000 nM.
For the compound `Cc1cc(-c2cc(NS(=O)(=O)C(C)C)cc3nc(C4CC4)oc23)cn(C)c1=O` [Example 51, N-[2-cyclopropyl-7-(1,5-dimethyl-6-oxopyridin-3-yl)-1,3-benzoxazol-5-yl]propane-2-sulfonamide], the IC50 in assay [1] was not above 500 nM; in assay [2], 500 to 5000 nM; in assay [3] it was not above 500 nM; in assay [4], more than 5000 nM.
Take `CCS(=O)(=O)Nc1cc(-c2cc(C)c(=O)n(C)c2)cc2c1nnn2Cc1ccc(F)cc1` [Example 28, N-[6-(1,5-dimethyl-6-oxopyridin-3-yl)-1-[(4-fluorophenyl)methyl]benzotriazol-4-yl]ethanesulfonamide]: the IC50 in assay [1] was not above 500 nM; in assay [2], not above 500 nM; in assay [3] it was not above 500 nM; in assay [4] it was 500 to 5000 nM.
Consider `Cn1cc(-c2cc(S(C)(=O)=O)cc3cc(C4CC4)oc23)c2ccccc2c1=O` [Example 24, 4-(2-cyclopropyl-5-methylsulfonyl-1-benzofuran-7-yl)-2-methylisoquinolin-1-one], for which the IC50 in assay [1] is not above 500 nM; in assay [2], not above 500 nM; in assay [3], not above 500 nM; in assay [4], 500 to 5000 nM.
As for `Cc1cc(-c2cc3c(cc2OCC(F)(F)F)CN(C)S3(=O)=O)cn(C)c1=O` [Example 9, 1,3-dimethyl-5-[2-methyl-1,1-dioxo-5-(2,2,2-trifluoroethoxy)-3H-1,2-benzothiazol-6-yl]pyridine-2-one], the IC50 in assay [1] was not above 500 nM; in assay [2] it was 500 to 5000 nM; in assay [3], not above 500 nM; in assay [4], more than 5000 nM.
For `Cc1cc(-c2cc(NS(C)(=O)=O)ccc2Oc2ccc(F)cc2F)c2n(c1=O)CCC2` [Example 86, N-[4-(2,4-difluorophenoxy)-3-(6-methyl-5-oxo-2,3-dihydro-1H-indolizin-8-yl)phenyl]methanesulfonamide], the IC50 in assay [1] was not above 500 nM; in assay [2], not above 500 nM; in assay [3], not above 500 nM; in assay [4] it was more than 5000 nM.
For `CCS(=O)(=O)Nc1cc(-c2cn(C)c(=O)c3ccccc23)c2oc(C3CCCC3)nc2c1` [Example 53, N-[2-cyclopentyl-7-(2-methyl-1-oxoisoquinolin-4-yl)-1,3-benzoxazol-5-yl]ethanesulfonamide], the IC50 is not above 500 nM in assay [1], not above 500 nM in assay [2], not above 500 nM in assay [3] and more than 5000 nM in assay [4].
